Test results: the supplement of paper PMC10307832

Tests used:
Assay in all cases: relative viability (nuclei count vs DMSO), 5 days (fraction); higher = more cells survive
Bleomycin + Palbociclib = compound: CC1=C(N=C(N=C1N)[C@H](CC(=O)N)NC[C@@H](C(=O)N)N)C(=O)N[C@@H]([C@H](C2=CN=CN2)OC3C(C(C(C(O3)CO)O)O)OC4C(C(C(C(O4)CO)O)OC(=O)N)O)C(=O)N[C@H](C)[C@H]([C@H](C)C(=O)N[C@@H]([C@@H](C)O)C(=O)NCCC5=NC(=CS5)C6=NC(=CS6)C(=O)NCCC[S+](C)C)O [Bleomycin] + CC(=O)c1c(C)c2cnc(Nc3ccc(N4CCNCC4)cn3)nc2n(C2CCCC2)c1=O [Palbociclib] (partner 0.5 µM); conditions: main component drawn
Outline: (§1)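 Nuclei were stained with Hoechst during a one-step fixation (final 0.05% Triton X-100, 1% formaldehyde, 1 ug/ml Hoechst) carried out 5 days after dosing, then counted on 4× images. The cells, lung cancer lines in 1536-well plates, had been dosed by pin tool the day after seeding with one drug alone or a fixed anchor-drug dose plus five library-drug doses (not always all listed) in √10 steps. Relative viability is the nuclei count in treated wells divided by that in vehicle wells, and each value is the median of duplicate plates.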

Bleomycin + AZD7762 = compound: CC1=C(N=C(N=C1N)[C@H](CC(=O)N)NC[C@@H](C(=O)N)N)C(=O)N[C@@H]([C@H](C2=CN=CN2)OC3C(C(C(C(O3)CO)O)O)OC4C(C(C(C(O4)CO)O)OC(=O)N)O)C(=O)N[C@H](C)[C@H]([C@H](C)C(=O)N[C@@H]([C@@H](C)O)C(=O)NCCC5=NC(=CS5)C6=NC(=CS6)C(=O)NCCC[S+](C)C)O [Bleomycin] + NC(=O)Nc1cc(-c2cccc(F)c2)sc1C(=O)N[C@H]1CCCNC1 [AZD7762] (partner 0.2 µM); conditions: main component drawn
Outline: as §1

Etoposide + Crizotinib = compound: COc1cc([C@@H]2c3cc4c(cc3[C@@H](O[C@@H]3O[C@@H]5CO[C@@H](C)O[C@H]5[C@H](O)[C@H]3O)[C@H]3COC(=O)[C@H]23)OCO4)cc(OC)c1O [Etoposide] + C[C@@H](Oc1cc(-c2cnn(C3CCNCC3)c2)cnc1N)c1c(Cl)ccc(F)c1Cl [Crizotinib] (partner 1 µM)
Outline: as §1

Etoposide + Decitabine = compound: COc1cc([C@@H]2c3cc4c(cc3[C@@H](O[C@@H]3O[C@@H]5CO[C@@H](C)O[C@H]5[C@H](O)[C@H]3O)[C@H]3COC(=O)[C@H]23)OCO4)cc(OC)c1O [Etoposide] + Nc1ncn([C@H]2C[C@H](O)[C@@H](CO)O2)c(=O)n1 [Decitabine] (partner 2 µM)
Outline: as §1

| Cell Line | relative viability (Bleomycin + Palbociclib; first compound 0.01 µM) | relative viability (Bleomycin + Palbociclib; first compound 0.03162 µM) | relative viability (Bleomycin + Palbociclib; first compound 0.1 µM) | relative viability (Bleomycin + Palbociclib; first compound 0.3162 µM) | relative viability (Bleomycin + Palbociclib; first compound 1 µM) | relative viability (Bleomycin + AZD7762; first compound 0.01 µM) | relative viability (Bleomycin + AZD7762; first compound 0.03162 µM) | relative viability (Bleomycin + AZD7762; first compound 0.1 µM) | relative viability (Bleomycin + AZD7762; first compound 0.3162 µM) | relative viability (Bleomycin + AZD7762; first compound 1 µM) | relative viability (Etoposide + Crizotinib; first compound 0.01 µM) | relative viability (Etoposide + Crizotinib; first compound 0.03162 µM) | relative viability (Etoposide + Crizotinib; first compound 0.1 µM) | relative viability (Etoposide + Crizotinib; first compound 0.3162 µM) | relative viability (Etoposide + Crizotinib; first compound 1 µM) | relative viability (Etoposide + Decitabine; first compound 0.01 µM) | relative viability (Etoposide + Decitabine; first compound 0.03162 µM) | relative viability (Etoposide + Decitabine; first compound 0.1 µM) | relative viability (Etoposide + Decitabine; first compound 0.3162 µM) | relative viability (Etoposide + Decitabine; first compound 1 µM) |
| --- | --- | --- | --- | --- | --- | --- | --- | --- | --- | --- | --- | --- | --- | --- | --- | --- | --- | --- | --- | --- |
| RERF-LC-KJ | 0.678 | 0.537 | 0.444 | 0.185 | 0.18 | 0.905 | 0.848 | 0.492 | 0.278 | 0.179 | 0.885 | 0.798 | 0.773 | 0.685 | 0.46 | 0.643 | 0.638 | 0.54 | 0.579 | 0.335 |
| LC-2-ad | 0.454 | 0.541 | 0.421 | 0.3 | 0.31 | 0.761 | 0.775 | 0.644 | 0.316 | 0.26 | 0.568 | 0.45 | 0.434 | 0.332 | 0.203 | 0.778 | 0.682 | 0.922 | 0.741 | 0.566 |
| BEN | 0.482 | 0.473 | 0.452 | 0.444 | 0.408 | 0.735 | 0.736 | 0.66 | 0.534 | 0.606 | 0.701 | 0.827 |  | 0.828 | 0.693 | 0.742 | 0.769 |  | 0.692 | 0.476 |
| EMC-BAC-2 | 0.378 | 0.433 | 0.414 | 0.333 | 0.293 | 0.96 | 1.05 | 1.08 | 0.607 | 0.415 | 0.661 | 0.527 | 0.382 | 0.2 | 0.161 | 0.938 | 0.893 | 0.606 | 0.323 | 0.298 |
| LU99A | 0.329 | 0.405 | 0.286 | 0.167 | 0.126 | 0.298 | 0.261 | 0.203 | 0.157 | 0.121 | 0.577 | 0.512 | 0.388 | 0.288 | 0.189 | 0.893 | 0.928 | 0.504 | 0.473 | 0.246 |
| ABC-1 | 0.467 | 0.822 | 0.789 | 0.512 | 0.433 | 0.748 | 1 | 0.845 | 0.573 | 0.34 | 0.791 | 0.965 | 0.892 | 0.395 | 0.179 | 1.08 | 0.939 | 0.62 | 0.619 | 0.52 |
| NCI-H2170 | 0.328 | 0.342 | 0.307 | 0.274 | 0.259 | 0.781 | 0.63 | 0.687 | 0.467 | 0.421 | 1.06 | 1.21 |  | 1 | 0.851 | 0.463 | 0.449 |  | 0.386 | 0.342 |
| NCI-H2405 | 0.424 | 0.502 | 0.544 | 0.346 | 0.323 | 0.668 | 0.683 | 0.632 | 0.531 | 0.304 | 0.804 | 0.962 | 0.717 | 0.694 | 0.33 | 0.732 | 0.808 | 0.563 | 0.519 | 0.328 |
| NCI-H1993 | 0.579 | 0.525 | 0.535 | 0.451 | 0.329 | 0.723 | 0.822 | 0.739 | 0.491 | 0.517 | 0.758 | 0.856 | 0.734 | 0.712 | 0.473 |  | 0.609 | 0.482 | 0.599 | 0.461 |
| NCI-H441 | 0.182 | 0.203 | 0.185 | 0.153 | 0.17 | 1.05 | 0.977 | 1.17 | 0.689 | 0.775 | 0.597 | 0.603 | 0.39 | 0.197 | 0.133 | 0.273 | 0.239 | 0.241 | 0.213 | 0.169 |
| PC-14 | 0.193 | 0.174 | 0.127 | 0.0449 | 0.0437 | 0.254 | 0.347 | 0.187 | 0.0884 | 0.0848 | 0.957 | 0.896 | 0.951 | 0.728 | 0.59 | 0.242 | 0.248 | 0.258 | 0.182 | 0.103 |
| HARA | 0.219 | 0.291 | 0.252 | 0.188 | 0.197 | 0.281 | 0.299 | 0.306 | 0.226 | 0.244 | 0.801 | 1.11 | 1.11 | 0.611 | 0.192 | 0.556 | 0.578 | 0.573 | 0.399 | 0.301 |
| NCI-H2126 | 0.338 | 0.384 | 0.298 | 0.33 | 0.319 | 0.932 | 0.963 | 1.15 | 0.894 | 0.922 | 0.998 | 1.05 | 0.765 | 0.888 | 0.328 | 0.584 | 0.636 | 0.486 | 0.476 | 0.323 |
| NCI-H1437 | 0.306 | 0.224 | 0.293 | 0.256 | 0.221 | 1.04 | 1.12 | 1.14 | 0.765 | 0.746 | 1.04 | 0.918 | 0.926 | 0.403 | 0.361 | 0.537 | 0.632 | 0.568 | 0.441 | 0.332 |
| NCI-H1792 | 0.613 | 0.624 | 0.592 | 0.482 | 0.362 | 0.615 | 0.635 | 0.716 | 0.253 | 0.141 | 1.02 | 0.913 | 0.825 | 0.831 | 0.623 | 0.515 | 0.741 |  | 0.5 | 0.331 |
